Non-standard residues stand in square brackets, D forms with d. Residues, ends and D or L forms follow the SMILES beside them. No end group written: not given here. Bip = N[C@@H](Cc1ccc(-c2ccccc2)cc1)C(=O)O; Dip = N[C@H](C(=O)O)C(c1ccccc1)c1ccccc1
Legend:
[1] = test system: A375 cells; assay: Confocal microscopy with fluorescence-labeled peptide (internalization); type: cell-based, human; conditions: 3 μM and 1.5 μM, 30-60 min
Description: Subconfluential A375 cells were seeded at 8,000 cells/well as above, and transfected on the second day using the Lipofectamine LTX with Plus transfection reagents (Invitrogen) following the manufacturer's protocol. The mitochondria were labeled using the pDsRed2-Mito, and the nucleus was labeled using the GFP-Histon2B plasmid (Imaging Platform, University of Tromsø). A day after transfection, cells were washed twice with serum-free RPMI, and treated at different concentration and incubation periods with LTX-315 Pacific Blue or LTX-328 Pacific Blue. […] Control cells were treated with unlabeled LTX-315 and also with serum-free RPMI only. After incubation, cells were fixed with 4% paraformaldehyde in PBS, and the wells were covered with Prolong Gold antifade (Invitrogen). Cells were further analyzed by use of a Leica TCS SP5 confocal microscope, with a […] objective. Pacific Blue, GFP and Ds Red were excited using UV, with 488 and 561 lasers, and fluorescence channels were sequentially detected using the following band passes: UV: 420-480 nm (with attenuation), 488: 501-550 nm and 561: 576-676 nm.

[2] = test system: RPMI 8226 cell line; type: cell-based, human; conditions: 4 h
Description: (§1) Tumor cells were plated in 96-well flat-bottom microtitration plates (Nunc, Dutscher, Brumath, France) and incubated at 37° C. for 24 hours before treatment in 190 μl of drug-free culture medium supplemented or not with 10% FBS for adherent or suspension growing cell lines, respectively.
(§2) The adherent cell lines were washed once with 200 μl FBS-free culture medium before treatment. Tumor cells were incubated for 4 hours with 10 concentrations of compounds in ¼ dilution step with a top dose of 400 μM (range 4×10^−4 to 4×10^−10 M), with 1% (final concentration) Triton X-100 as positive control and FBS-free culture medium as negative control. The cells (190 μl) were incubated in a 200 μl final volume of FBS-free culture medium containing test substances at 37° C. under 5% CO2.
(§3) Three independent experiments were performed, each concentration being tested in quadruplicate. Control cells were treated with vehicle alone. At the end of treatments, the cytotoxic activity was evaluated by a MTS assay (see § 3.3.).
(§4) Like MTT, MTS is bioreduced by cells into a formazan product that is directly soluble in culture medium without processing, unlike MTT.
(§5) At the end of the cells treatment, 40 μl of a 0.22 μm filtered freshly combined solution of MTS (20 ml at 2 mg/ml, Ref G1111, Batch 235897, Exp March 2009, Promega, Charbonnières, France) and PMS (1 ml at 0.92 mg/ml, Ref P9625, Batch 065K0961, Sigma) in Dulbecco's Phosphate Buffered Saline (DPBS, Ref 17-513Q, Batch 6MB0152, Cambrex), were added in each well. Culture plates were incubated for 2 h at 37° C. Absorbency (OD) were measured at 490 nm in each well using VICTOR^3™ 1420 multilabeled counter (Wallac, PerkinElmer, Courtaboeuf, France).
(§6) IC50: drug concentration to obtain a 50% inhibition of cell proliferation.
(§7) The dose-response curves were plotted using XLFit 3 (IDBS, United Kingdom). The IC50 determination values were calculated using the XLFit 3 software from semi-log curves. Individual IC50 determination values as well as mean and SD values were generated.

[3] = test system: U-87 MG cell line; type: cell-based, human; conditions: 4 h
Description: as §1, §2, §3, §4, §5, §6, §7

[4] = test system: CCRF-CEM/VLB; assay: MTS cytotoxicity assay, CCRF-CEM/VLB; type: cell-based, human; conditions: IC50 resistant / IC50 sensitive line
Description: as §1
The adherent cell lines were washed once with 200 μl FBS-free culture medium before treatment. Tumor cells were incubated for 4 hours with 10 concentrations of compounds in ¼ dilution step with a top dose of 400 μM (range 4×10^−4 to 4×10^−10 M), with 1% (final concentration) Triton X-100 as positive control and FBS-free culture medium as negative control. […]
Three independent experiments were performed, each concentration being tested in quadruplicate. […] At the end of treatments, the cytotoxic activity was evaluated by a MTS assay (see § 3.3.). […]
At the end of the cells treatment, 40 μl of a 0.22 μm filtered freshly combined solution of MTS (20 ml at 2 mg/ml, Ref G1111, Batch 235897, Exp March 2009, Promega, Charbonnières, France) and PMS (1 ml at 0.92 mg/ml, Ref P9625, Batch 065K0961, Sigma) in Dulbecco's Phosphate Buffered Saline (DPBS, Ref 17-513Q, Batch 6MB0152, Cambrex), were added in each well. […] Absorbency (OD) were measured at 490 nm in each well using VICTOR^3™ 1420 multilabeled counter (Wallac, PerkinElmer, Courtaboeuf, France). […]
(§8) Resistance index was calculated using the following formula: […]

[5] = test system: panel of 10 lymphoma cell lines; type: cell-based, human; conditions: conclusion
Description: (§9) Tumor cells were plated in 96-well flat-bottom microtitration plates (Nunc, Dutscher, Brumath, France) and incubated at 37° C. for 24 hours before treatment in 190 μl of drug-free and FBS-free culture medium.
[…] compounds in ¼ dilution step with a top dose of 400 μM (range 4×10^−4 to […]), with 1% (final concentration) Triton X-100 as positive control and FBS-free culture medium as negative control. The cells (190 μl) were incubated in a 200 μl final volume of FBS-free culture medium containing test substances at 37° C. under 5% CO2.
(§10) Three independent experiments were performed, each concentration being issued from quadruplicate. Control cells were treated with vehicle alone. At the end of treatments, the cytotoxic activity was evaluated by a MTS assay (see § 3.3 below).
as §4, §5
(§11) 4.1. IC50 Data was Determined as in Example 1

[6] = test system: MCF-7/mdr; assay: MTS cytotoxicity assay, MCF-7/mdr; type: cell-based, human; conditions: IC50 resistant / IC50 sensitive line; doxorubicin resistance
Description: as §1, §2, §3, §4, §5, §6, §7, §8
(§12) Resistance index was calculated for each compound for each couple of sensitive and resistant cell lines. Individual resistance index was calculated when IC50 values of both sensitive and corresponding resistant cell lines were determined within same experiment. In addition, resistance index was also calculated ratio of mean IC50 values obtained during three independent experiments.

[7] = test system: IGROV-1/CDDP; assay: MTS cytotoxicity assay, IGROV-1/CDDP; type: cell-based, human; conditions: IC50 resistant / IC50 sensitive line; cisplatin resistance
Description: as §1, §2, §3, §4, §5, §6, §7, §8, §12

[8] = test system: panel of 37 human cancer cell lines; type: cell-based; conditions: for IC50: 4 h; for IC50 range against 37 human cancer cell lines: conclusion
Description: The adherent cell lines were washed once with 200 μl FBS-free culture medium before treatment. […] compounds in ¼ dilution step with a top dose of 400 μM (range 4×10^−4 to 4×10^−10 M), with 1% (final concentration) Triton X-100 as positive control and FBS-free culture medium as negative control. The cells (190 μl) were incubated in a 200 μl final volume of FBS-free culture medium containing test substances at 37° C. under 5% CO2.
as §3, §4, §5, §6, §7

[9] = test system: Ramos cell line; type: cell-based, human; conditions: 4 h
Description: as §9
(§13) Tumor cells were incubated for 4 hours with 10 concentrations of compounds in ¼ dilution step with a top dose of 400 μM (range 4×10^−4 to […]), with 1% (final concentration) Triton X-100 as positive control and FBS-free culture medium as negative control. The cells (190 μl) were incubated in a 200 μl final volume of FBS-free culture medium containing test substances at 37° C. under 5% CO2.
as §10, §4, §5, §11

[10] = test system: Raji cell line; type: cell-based, human; conditions: 4 h
Description: as §9, §13, §10, §4, §5, §11

[11] = test system: HL-60/ADR; assay: MTS cytotoxicity assay, HL-60/ADR; type: cell-based, human; conditions: IC50 resistant / IC50 sensitive line; doxorubicin resistance
Description: as §1, §2, §3, §4, §5, §6, §7, §8, §12

[12] = test system: Hep G2 cell line; type: cell-based, human; conditions: 4 h
Description: as §1, §2, §3, §4, §5, §6, §7

[13] = test system: T-47D cell line; type: cell-based, human; conditions: 4 h
Description: as §1, §2, §3, §4, §5, §6, §7

[14] = test system: U-937 cell line; type: cell-based, human; conditions: 4 h
Description: as §9, §13, §10, §4, §5, §11

Compound	Internalization of Pacific Blue-labeled peptide [1]	IC50 [2]	IC50 [3]	Resistance index (RI), CCRF-CEM/VLB [4]	IC50 range against 10 human lymphoma cell lines [5]	Resistance index (RI), MCF-7/mdr [6]	Resistance index (RI), IGROV-1/CDDP [7]	IC50 [8]	IC50 range against 37 human cancer cell lines [8]	IC50 [9]	IC50 [10]	Resistance index (RI), HL-60/ADR [11]	IC50 [12]	IC50 [13]	IC50 [14]
K-A-Q-Dip-Q-K-Q-A-W-NH2 (KAQ[Dip]QKQAW-NH2; N-terminus assumed; SMILES C[C@H](NC(=O)[C@H](CCC(N)=O)NC(=O)[C@H](CCCCN)NC(=O)[C@H](CCC(N)=O)NC(=O)[C@@H](NC(=O)[C@H](CCC(N)=O)NC(=O)[C@H](C)NC(=O)[C@@H](N)CCCCN)C(c1ccccc1)c1ccccc1)C(=O)N[C@@H](Cc1c[nH]c2ccccc12)C(N)=O) [LTX-328, reference compound]	did not demonstrate any internalization at any concentration or incubation time tested														
NCCCC[C@H](NC(=O)[C@H](Cc1c[nH]c2ccccc12)NC(=O)[C@H](Cc1c[nH]c2ccccc12)NC(=O)[C@H](CCCCN)NC(=O)[C@H](CCCCN)NC(=O)[C@H](Cc1c[nH]c2ccccc12)NC(=O)[C@H](Cc1ccc(-c2ccccc2)cc1)NC(=O)[C@H](CCCCN)NC(=O)[C@@H](N)CCCCN)C(N)=O [LTX-313, K-K-Bip-W-K-K-W-W-K-NH2] (H-KK[Bip]WKKWWK-NH2; N-terminus assumed)		4.01 ± 0.39 µM	18.5 ± 4.86 µM	0.76	micromolar range	1.24	0.49	9.6 ± 3.73 µM	micromolar to ten micromolar range	3.21 ± 2.81 µM	16.1 ± 4.86 µM	1.16			
NCCCC[C@H](NC(=O)[C@H](Cc1c[nH]c2ccccc12)NC(=O)[C@H](CCCCN)NC(=O)[C@H](CCCCN)NC(=O)[C@@H](NC(=O)[C@H](Cc1c[nH]c2ccccc12)NC(=O)[C@H](CCCCN)NC(=O)[C@H](CCCCN)NC(=O)[C@@H](N)Cc1c[nH]c2ccccc12)C(c1ccccc1)c1ccccc1)C(N)=O [LTX-302, W-K-K-W-Dip-K-K-W-K-NH2] (H-WKKW[Dip]KKWK-NH2; N-terminus assumed)					micromolar range	1.23	0.33	12.1 ± 4.27 µM	micromolar to ten micromolar range		12.5 ± 3.52 µM	1.31	20.1 ± 4.07 µM	4.83 ± 0.96 µM	5.3 ± 2.02 µM

From patent publication US11123398B2, “Chemotherapeutic combinations of cationic antimicrobial peptides and chemotherapeutics” (LYTIX BIOPHARMA AS, priority 2014, dated 2021)
